Here are results for three compounds from US10759785B2, “Compounds” (ENTERPRISE THERAPEUTICS LIMITED, priority 2016, dated 2020).

Series [1] concerns the target T1, ENaC (Homo sapiens, UniProt P37088+P51168+P51170).
T1 construct: Human bronchial epithelial cells (HBECs) (Lonza, UK) were cultured; host or cells: primary human bronchial epithelial cells (HBECs) differentiated at an air-liquid interface
T1 sequence (P37088 1-669): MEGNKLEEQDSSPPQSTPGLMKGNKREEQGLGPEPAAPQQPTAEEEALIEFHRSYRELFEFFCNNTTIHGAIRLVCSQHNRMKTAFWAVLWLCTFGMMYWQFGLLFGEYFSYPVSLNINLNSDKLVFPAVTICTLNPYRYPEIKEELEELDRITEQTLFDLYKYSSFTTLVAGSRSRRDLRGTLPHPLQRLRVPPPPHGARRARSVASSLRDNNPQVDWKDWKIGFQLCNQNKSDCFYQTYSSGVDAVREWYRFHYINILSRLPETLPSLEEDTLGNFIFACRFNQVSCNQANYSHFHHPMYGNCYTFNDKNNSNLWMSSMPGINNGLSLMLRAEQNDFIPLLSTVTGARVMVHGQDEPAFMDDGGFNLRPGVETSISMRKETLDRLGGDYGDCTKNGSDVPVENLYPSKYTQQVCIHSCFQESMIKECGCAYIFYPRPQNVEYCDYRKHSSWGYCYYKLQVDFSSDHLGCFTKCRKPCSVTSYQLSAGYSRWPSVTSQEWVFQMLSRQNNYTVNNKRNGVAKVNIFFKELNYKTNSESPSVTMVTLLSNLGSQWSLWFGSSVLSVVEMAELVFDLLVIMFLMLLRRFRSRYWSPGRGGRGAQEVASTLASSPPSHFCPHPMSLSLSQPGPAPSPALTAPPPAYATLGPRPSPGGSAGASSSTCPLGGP
T1 sequence (P51168 1-640): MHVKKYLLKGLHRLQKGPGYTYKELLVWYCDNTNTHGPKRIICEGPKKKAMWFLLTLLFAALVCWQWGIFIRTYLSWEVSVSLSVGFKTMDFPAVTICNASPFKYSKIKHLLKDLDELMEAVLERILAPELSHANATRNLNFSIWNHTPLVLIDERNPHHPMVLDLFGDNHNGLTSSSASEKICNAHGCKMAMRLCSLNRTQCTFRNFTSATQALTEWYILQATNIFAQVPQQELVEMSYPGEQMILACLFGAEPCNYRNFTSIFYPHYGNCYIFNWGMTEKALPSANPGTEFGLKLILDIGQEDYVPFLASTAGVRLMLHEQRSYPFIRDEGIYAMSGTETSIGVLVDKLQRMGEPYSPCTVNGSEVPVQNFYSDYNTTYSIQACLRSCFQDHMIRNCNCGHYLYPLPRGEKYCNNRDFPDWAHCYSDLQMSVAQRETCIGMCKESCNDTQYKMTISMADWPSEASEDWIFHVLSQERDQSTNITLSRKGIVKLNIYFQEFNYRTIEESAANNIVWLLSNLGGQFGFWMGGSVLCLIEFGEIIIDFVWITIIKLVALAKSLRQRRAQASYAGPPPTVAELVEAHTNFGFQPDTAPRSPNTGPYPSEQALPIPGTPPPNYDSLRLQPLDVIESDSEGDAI
T1 sequence (P51170 1-649): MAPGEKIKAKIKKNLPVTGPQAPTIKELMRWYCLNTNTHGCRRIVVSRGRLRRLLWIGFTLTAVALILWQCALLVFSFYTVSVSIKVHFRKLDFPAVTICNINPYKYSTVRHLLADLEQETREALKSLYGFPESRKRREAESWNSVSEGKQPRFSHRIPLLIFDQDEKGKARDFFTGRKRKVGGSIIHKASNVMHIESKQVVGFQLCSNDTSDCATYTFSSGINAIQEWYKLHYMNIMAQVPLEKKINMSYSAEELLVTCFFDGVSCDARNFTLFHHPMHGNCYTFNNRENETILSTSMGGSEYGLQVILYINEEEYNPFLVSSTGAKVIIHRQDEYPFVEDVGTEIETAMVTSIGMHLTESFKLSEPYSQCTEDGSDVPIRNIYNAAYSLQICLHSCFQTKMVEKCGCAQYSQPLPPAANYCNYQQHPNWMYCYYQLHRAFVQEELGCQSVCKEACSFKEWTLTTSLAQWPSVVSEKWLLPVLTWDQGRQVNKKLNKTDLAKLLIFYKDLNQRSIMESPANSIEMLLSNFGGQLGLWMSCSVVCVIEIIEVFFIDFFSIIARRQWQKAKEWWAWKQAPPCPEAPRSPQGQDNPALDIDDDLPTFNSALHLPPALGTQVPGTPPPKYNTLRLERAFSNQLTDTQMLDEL
Particulars: cited from earlier work.

Series [2] in a line: Microsomal stability (human microsomes). The class given is in vitro ADME. Particulars: pH 7.4, 1 μM test compound, 0.5 mg/mL protein, 1 mM NADPH, 37° C., read-out: Averages. Mic Half Life Human. The method, then: (§1) Example 28—Microsomal Stability
(§2) Microsomes (rat and human) were obtained from Bioreclamation. Test compound stock solutions in DMSO (10 mM) were diluted with DMSO to 2 mM. Further dilution was completed to achieve a 100 μM stock (final concentrations; 91.5% Acetonitrile: 8.5% DMSO). Final test compound concentration in incubation was 1 μM (<0.1% DMSO). The following probe substrates were used: verapamil, propranolol, metoprolol and phenacetin (rat) at a final incubation concentration of 1 μM. Assay buffer—Solution 1: 17.4 g potassium phosphate dibasic anhydrous (K2HPO4, 0.1 M) dissolved in 1 L deionised water. Solution 2: 13.6 g potassium phosphate monobasic anhydrous (KH2PO4, 0.1 M) dissolved in 1 L deionised water. Potassium phosphate solutions 1 and 2 were combined to form a pH 7.42 solution at 37° C. pH 7.4 with 2 mM magnesium chloride. NADPH (10 mM)—diluted in deionised water. Frozen microsomes were thawed at 37° C. Microsomes were diluted in assay buffer to achieve a final protein concentration of 0.5 mg/mL and 1 mM NADPH. The following procedure was completed on a Perkin Elmer Janus robotic platform in 96 well format: The microsomal incubation plate was transferred to a heater shaker at 300 rpm and solution heated to 37° C. for 10 min pre-warm. A no co-factor control at 0 and 45 min and one replicates of each test compound was included in every assay. Microsomes were incubated at 37° C., on a shaker set at 300 rpm throughout the assay. At each timepoint (0, 5, 15, 30, 45 min) 50 μL of sample was removed from the 96-well and added to 200 μL of quench solution (acetonitrile containing 0.1% formic acid and imipramine/labetalol, 200 nM). Samples were diluted 1:1 with water using the Janus Robot and analysed by LC-MS/MS.

The nature of series [3]: Hepatic stability (rat cryopreserved hepatocytes). Particulars: pH 7.4, 1 μM test compound, 1×10^6 cells/mL, 37° C., read-out: Averages. Hep Half Life Rat. The format is in vitro ADME. The method, then: (§3) Example 29—Hepatic Stability
(§4) Cryopreserved hepatocytes (rat and human) were obtained from Bioreclamation. Test compound stock solutions in DMSO (10 mM) were diluted with DMSO to 4 mM. Further dilution was completed to achieve a 100 μM stock (5 μL of 4 mM in 195 μL of 50:50 DMSO:hepatocyte buffer). Final test compound concentration in incubation was 1 μM. The following probe substrates were used: testosterone and carbamazepine at a final incubation concentration of 1 μM. Hepatocyte buffer was prepared (Williams E media containing phenol red and Glutamax™, 15 mM HEPES, warmed to 37° C., pH7.4 with NaOH). Cells were removed from liquid nitrogen, thawed in a waterbath, decanted into 50 mL of pre-warmed Cryopreserved Hepatocyte Recovery Media (LifeTechnologies) and centrifuged. Supernatant fraction was removed, cells were re-suspended in hepatocyte buffer and counted by trypan blue exclusion. Cell viability of >80% was required for all assays. Cells were re-suspended to 1×10^6/mL and 198 μL cell suspension added to each 96-well. 2 μL of 100 μM compound stock solution was added to relevant wells to initiate the incubation. A no cell control and two replicates of each test compound was included in every assay. Cells were incubated at 37° C., on a shaker set at 300 rpm. At each timepoint (0, 15, 30, 45, 60, 90 min) 20 μL of sample was removed from the 96-well and added to 80 μL of quench solution (acetonitrile containing 0.1% formic acid and imipramine/labetalol, 200 nM). Samples were diluted 1:1 with water using the Janus Robot and analysed by LC-MS/MS.

A short description of series [4]: Microsomal stability (rat microsomes). Particulars: pH 7.4, 1 μM test compound, 0.5 mg/mL protein, 1 mM NADPH, 37° C., read-out: Averages. Mic Half Life Rat. The format is in vitro ADME. The procedure:
as §1, §2

Series [5] can be described thus: Hepatic stability (human cryopreserved hepatocytes). The class given is in vitro ADME. Particulars: cryopreserved hepatocytes, pH 7.4, 1 μM test compound, 1×10^6 cells/mL, 37° C., read-out: Averages. Hep Half Life Human. The procedure:
as §3, §4

The target of series [6] is T1, ENaC. Description: Short circuit current assay to determine ENaC blocker potency in human bronchial epithelial cells. The format is cell-based. Particulars: 50% inhibition of total amiloride-sensitive ISC, HBECs, apical addition; read-out: Averages. ENaC Ic50 μm Avg. The procedure:
Example 27—Short Circuit Current Assay to Determine ENaC Blocker Potency in Human Bronchial Epithelial Cells
Human bronchial epithelial cells (HBECs) (Lonza, UK) were cultured using a modification of the method described by Coote et al, (2008). Cells were seeded into plastic T-75 flasks and grown in Bronchial Epithelial Cell Growth Medium (BEGM) (Lonza, UK) supplemented with bovine pituitary extract (52 ng/mL), hydrocortisone (0.5 μg/mL), human recombinant Epidermal Growth Factor (0.5 ng/mL), epinephrine (0.5 ng/mL), transferrin (10 ng/mL), insulin (5 ng/mL), retinoic acid (0.1 ng/mL), triiodothyronine (6.5 ng/mL), gentamycin (50 μg/mL) and amphotericin-B (50 ng/mL). Medium was changed every 48 hours until cells were 90% confluent. Cells were then passaged and seeded (8.25×10^5 cells/insert) onto polycarbonate Snapwell™ inserts (Costar, UK) in differentiation media containing 50% DMEM in BGEM with the same supplements as above but without triiodothyronine and a final retinoic acid concentration of 50 nM (all-trans retinoic acid; Sigma-Aldrich, UK). Cells were maintained submerged for the first 7 days in culture after which time they were exposed to an apical air interface for the remainder of the culture period. From the first day of establishment of an ALI, HBEC were fed with a DMEM:HAMS F-12 (1:1) media containing 2% Ultroser G (Pall BioSepra, France) with gentamycin (50 μg/mL) and amphotericin B (50 ng/mL). Cells were used for short-circuit current assay between days 14-21 after the establishment of the ALI. At all stages of culture, cells were maintained at 37′C in 5% CO2 in an air incubator.
Short-Circuit Current (ISC) Measurements
Snapwell inserts were mounted in Costar Vertical Diffusion Chambers (Costar, UK) and were bathed with continuously gassed Ringer solution (5% CO2 in O2; pH 7.4) maintained at 37° C. containing (in mM): 120 NaCl, 25 NaHCO3, 3.3 KH2PO4, 0.8 K2HPO4, 1.2 CaCl2, 1.2 MgCl2 and 10 glucose. The solution osmolarity was always between 280-300 mOsm/kg H2O for all physiological salt solutions used. Cells were voltage clamped to 0 mV (model EVC4000, WPI). Transepithelial resistance (RT) was measured by applying a 2 mV pulse at 30 s intervals and calculating RT by Ohm's law. Data were recorded using a PowerLab workstation (ADInstruments, UK).
ENaC blocker compounds were added to the apical chamber from a 1000-fold stock solution (prepared in DMSO) to achieve a cumulative concentration response in terms of the inhibition of the basal ISC. At the completion of the concentration response, a supra-maximal concentration of amiloride (10 μM) was added. The concentration of test compound that induced a 50% inhibition of the total amiloride-sensitive ISC (IC50) was calculated using GraphPad Prism v6.05.

pIC50: −log10 of the molar value.

As to `N=C(N)NC(=O)c1nc(Cl)c(N)nc1N` [Amiloride], at ENaC [1] (healthy controls and patients with CF), the “Effect on MCC” value is “increase MCC”. The “Effect on clinical endpoints” value at ENaC [1] (inhaled amiloride) is “lack of a robust effect”.

Turning to `CCn1c(CNC(=O)c2nc(Br)cnc2N)[n+](C)c2ccc(OC)cc21.[I-]` [Example 1, 2-{[(3-amino-6-bromopyrazin-2-yl)formamido]methyl}-1-ethyl-6-methoxy-3-methyl-1H-1,3-benzodiazol-3-ium iodide], the half-life at 1 μM in series [2] worked out at 12 min; in series [3], 6 min; in series [4], 3 min; in series [5], 44 min.

Consider `CCn1c(CNC(=O)c2nc(Br)cnc2N)[n+](CC)c2ccc(C(=O)O)cc21` [Example 16, 2-{[(3-amino-6-bromopyrazin-2-yl)formamido]methyl}-6-carboxy-1,3-diethyl-1H-1,3-benzodiazol-3-ium bromide], for which the pIC50 on ENaC [6] is 7.85.

A word on the half-life: it is the time in which the quantity being followed falls by half. For orientation: pIC50 means the IC50 on a negative log10 scale, so that one unit is a factor of ten.
